What was measured:
Carbonic anhydrase 2 = Carbonic anhydrase 2 (Homo sapiens, UniProt P00918); assay: Inhibition of human carbonic anhydrase-2
Carbonic anhydrase 1 = Carbonic anhydrase 1 (Homo sapiens, UniProt P00915); assay: Inhibition of human carbonic anhydrase-1
Carbonic anhydrase 12 = Carbonic anhydrase 12 (Homo sapiens, UniProt O43570); assay: Inhibition of human carbonic anhydrase-12
Chain of Carbonic anhydrase 12 (O43570 whole entry): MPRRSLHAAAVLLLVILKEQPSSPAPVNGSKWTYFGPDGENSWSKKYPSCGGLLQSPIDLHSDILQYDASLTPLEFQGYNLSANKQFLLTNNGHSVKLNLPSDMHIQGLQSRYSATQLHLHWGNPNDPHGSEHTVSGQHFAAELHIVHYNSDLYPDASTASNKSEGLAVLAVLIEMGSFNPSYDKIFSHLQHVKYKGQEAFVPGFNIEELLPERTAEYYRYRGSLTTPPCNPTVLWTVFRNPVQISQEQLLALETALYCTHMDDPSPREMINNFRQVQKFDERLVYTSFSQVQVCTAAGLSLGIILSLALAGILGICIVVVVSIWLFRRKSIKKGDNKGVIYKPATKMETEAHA

Chain of Carbonic anhydrase 1 (P00915 whole entry): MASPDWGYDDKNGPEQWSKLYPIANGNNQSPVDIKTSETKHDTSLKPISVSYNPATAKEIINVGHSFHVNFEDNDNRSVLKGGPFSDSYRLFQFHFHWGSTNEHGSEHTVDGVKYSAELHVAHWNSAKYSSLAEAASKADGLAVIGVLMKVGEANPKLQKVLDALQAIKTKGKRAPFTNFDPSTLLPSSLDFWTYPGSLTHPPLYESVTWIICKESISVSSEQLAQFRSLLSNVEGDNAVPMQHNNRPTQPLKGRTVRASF

| SMILES | Ki (Carbonic anhydrase 2) [nM] | Ki (Carbonic anhydrase 1) [nM] | Ki (Carbonic anhydrase 12) [nM] |
| --- | --- | --- | --- |
| NS(=O)(=O)Nc1ccc(NC(=O)NC2CCCCC2)cc1 | 342 | 4300 | 108 |
| NS(=O)(=O)Nc1ccc(NC(=O)Nc2cccc([N+](=O)[O-])c2)cc1 | 430 | 2150 | 9 |
| Cc1cc(Cl)ccc1NC(=O)Nc1ccc(NS(N)(=O)=O)cc1 | – | 4300 | 17 |
| COc1ccc(C)cc1NC(=O)Nc1ccc(NS(N)(=O)=O)cc1 | 430 | – | 27 |
| NS(=O)(=O)Nc1ccc(NC(=O)NCc2ccccc2)cc1 | 136 | 2710 | 9 |
| Cc1cc(C)cc(NC(=O)Nc2ccc(NS(N)(=O)=O)cc2)c1 | 682 | – | – |
| COc1ccc(OC)c(NC(=O)Nc2ccc(NS(N)(=O)=O)cc2)c1 | 430 | – | – |
| CC(C)c1ccccc1NC(=O)Nc1ccc(NS(N)(=O)=O)cc1 | 682 | – | – |
| NS(=O)(=O)Nc1ccc(NC(=O)NCCc2ccccc2)cc1 | 171 | 2710 | 9 |
| COc1ccc(NC(=O)Nc2ccc(NS(N)(=O)=O)cc2)c(C)c1 | 342 | 3420 | 34 |
| CCCCOc1ccc(NC(=O)Nc2ccc(NS(N)(=O)=O)cc2)cc1 | 342 | 1710 | – |
| NS(=O)(=O)Nc1ccc(NC(=O)Nc2ccc(Cl)cc2)cc1 | 342 | 3420 | 27 |
| NS(=O)(=O)Nc1ccc(NC(=O)NCc2ccco2)cc1 | – | 6660 | 11 |
| NS(=O)(=O)Nc1ccc(NC(=O)Nc2ccccc2-c2ccccc2)cc1 | 858 | – | 216 |
| NS(=O)(=O)Oc1ccc(NC(=O)NC23CC4CC(CC(C4)C2)C3)cc1 | 430 | – | 43 |
| CC(NC(=O)Nc1ccc(NS(N)(=O)=O)cc1)c1cccc2ccccc12 (stereo not given) | 430 | – | 27 |
